What all share (format): functional
One test concerns CAKI-1. Kind of test: Growth inhibition of Homo sapiens (human) CAKI-1 cells at 10 uM after 48 hr by SRB assay. The following applies: CAKI-1, 48 h, read-out: GI.
The next test deals with SK-MEL-28. Kind of test: Growth inhibition of Homo sapiens (human) SK-MEL-28 cells at 10 uM after 48 hr by SRB assay. The conditions noted are these: SK-MEL-28, 48 h, read-out: GI.
The next test deals with UACC-257. Kind of test: Growth inhibition of Homo sapiens (human) UACC257 cells at 10 uM after 48 hr by SRB assay. The following applies: UACC-257, 48 h, read-out: GI.
The test system of the next test is NCI-H522. Kind of test: Growth inhibition of Homo sapiens (human) NCI-H522 cells at 10 uM after 48 hr by SRB assay. The conditions noted are these: NCI-H522, 48 h, read-out: GI.
A further test deals with IGROV-1. Kind of test: Anticancer activity against Homo sapiens (human) IGROV1 cells after 48 hr by SRB assay. The conditions noted are these: IGROV-1, 48 h.
The subject of another test is RPMI-8226. Nature of the test: Growth inhibition of Homo sapiens (human) RPMI8226 cells at 10 uM after 48 hr by SRB assay. The conditions noted are these: RPMI-8226, 48 h, read-out: GI.
The next test deals with A498. Kind of test: Growth inhibition of Homo sapiens (human) A498 cells at 10 uM after 48 hr by SRB assay. The conditions noted are these: A498, 48 h, read-out: GI.
A further test has as its system MDA-MB-468. Nature of the test: Growth inhibition of Homo sapiens (human) MDA-MB-468 cells at 10 uM after 48 hr by SRB assay. The conditions noted are these: MDA-MB-468, 48 h, read-out: GI.
Another test relates to HOP-62. Kind of test: Anticancer activity against Homo sapiens (human) HOP62 cells after 48 hr by SRB assay. The following applies: HOP-62, 48 h; for CC50: read-out: LC50 (the source's name).
The next test has as its system OVCAR-4. Kind of test: Growth inhibition of Homo sapiens (human) OVCAR4 cells at 10 uM after 48 hr by SRB assay. The conditions noted are these: OVCAR-4, 48 h, read-out: GI.
The test system of a further test is DU-145. Nature of the test: Growth inhibition of Homo sapiens (human) DU145 cells at 10 uM after 48 hr by SRB assay. The following applies: DU-145, 48 h, read-out: GI.
Another test concerns NCI/ADR-RES. Kind of test: Growth inhibition of Homo sapiens (human) NCI/ADR-RES cells at 10 uM after 48 hr by SRB assay. The following applies: read-out: GI.
Test [1] deals with NCI-H226. Nature of the test: Anticancer activity against Homo sapiens (human) NCI-H226 cells after 48 hr by SRB assay. The conditions noted are these: NCI-H226, 48 h; for CC50: read-out: LC50 (the source's name).
The test system of a further test is SK-MEL-2. Kind of test: Growth inhibition of Homo sapiens (human) SK-MEL-2 cells at 10 uM after 48 hr by SRB assay. The following applies: SK-MEL-2, 48 h, read-out: GI.
Another test relates to COLO 205. Nature of the test: Growth inhibition of Homo sapiens (human) COLO205 cells at 10 uM after 48 hr by SRB assay. The conditions noted are these: COLO 205, 48 h, read-out: GI.
For a further test, the system named is EKVX. Kind of test: Growth inhibition of Homo sapiens (human) EKVX cells at 10 uM after 48 hr by SRB assay. The following applies: read-out: GI.
For a further test, the system named is OVCAR-5. Kind of test: Growth inhibition of Homo sapiens (human) OVCAR5 cells at 10 uM after 48 hr by SRB assay. The conditions noted are these: OVCAR-5, 48 h, read-out: GI.
The subject of the next test is SF-268. Kind of test: Growth inhibition of Homo sapiens (human) SF268 cells at 10 uM after 48 hr by SRB assay. The following applies: SF-268, 48 h, read-out: GI.
The next test relates to SN12C. Kind of test: Anticancer activity against Homo sapiens (human) SN12C cells after 48 hr by SRB assay.
The next test deals with NCI-H322M. Nature of the test: Growth inhibition of Homo sapiens (human) NCI-H322M cells at 10 uM after 48 hr by SRB assay. The conditions noted are these: read-out: GI.
A further test relates to SK-MEL-5. Kind of test: Growth inhibition of Homo sapiens (human) SK-MEL-5 cells at 10 uM after 48 hr by SRB assay. The conditions noted are these: SK-MEL-5, 48 h, read-out: GI.
For another test, the system named is MDA-MB-231. Nature of the test: Growth inhibition of Homo sapiens (human) MDA-MB-231/ATCC cells at 10 uM after 48 hr by SRB assay. The conditions noted are these: MDA-MB-231, 48 h, read-out: GI.
A further test concerns SR. Nature of the test: Growth inhibition of Homo sapiens (human) SR cells at 10 uM after 48 hr by SRB assay. The following applies: read-out: GI.
The test system of test [2] is NCI-H226. Nature of the test: Growth inhibition of Homo sapiens (human) NCI-H226 cells at 10 uM after 48 hr by SRB assay. The conditions noted are these: NCI-H226, 48 h, read-out: GI.

SMILES strings stand for the structures. Bounds are passed on as bounds.

Take `COc1ccc(OC)c(/C=C/C(=O)N/N=C/c2ccc(Cl)cc2)c1`: the inhibition of growth at 10 µM was 58.2% in the test on CAKI-1; 61.2% with SK-MEL-28; 47% in the test with UACC-257; 136% with NCI-H522; 78.7% with RPMI-8226; 87.5% with A498. The inhibition of growth at 10 µM was determined as 104% with MDA-MB-468; 59.8% in the test on OVCAR-4; 85.2% with DU-145; 96.2% with NCI/ADR-RES; 77.7% with SK-MEL-2; 149% with COLO 205. Besides, the inhibition of growth at 10 µM was 56.9% in the test with EKVX; 71.6% with OVCAR-5; 66.8% with SF-268; 58.7% in the test with NCI-H322M; 69.4% with SK-MEL-5; 71.9% with MDA-MB-231. Besides, the GI50 in the test on IGROV-1 is 187 nM; in the test with HOP-62, 0.162 µM; in the test with NCI-H226 [1], 0.979 µM; in the test with SN12C it was 0.982 µM. Further, in the test with IGROV-1, the LC50 (50% lethal concentration) is greater than 100 µM. Further, the concentration for total growth inhibition (TGI) is 62.9 µM with IGROV-1, 50.2 µM in the test with HOP-62, greater than 100 µM in the test with NCI-H226 [1] and greater than 100 µM in the test on SN12C. Besides, the CC50 in the test with HOP-62 and with NCI-H226 [1] was greater than 100 µM each time. In the test on SN12C, the 50% lethal concentration (LC50) was greater than 100 µM.

In the test with IGROV-1, `COc1ccc(OC)c(/C=C/c2nnc(S)n2-c2ccc(Cl)cc2)c1` showed a GI50 of 4380 nM, an LC50 (50% lethal concentration) greater than 100 µM and a concentration for total growth inhibition (TGI) greater than 100 µM. Also, the inhibition of growth at 10 µM in the test on MDA-MB-468 worked out at 61.2%. Further, in the test with HOP-62, growth was halved (GI50) at 6.48 µM, the total growth inhibition concentration (TGI) is greater than 100 µM and the CC50 was greater than 100 µM. In addition, in the test on SN12C, the GI50 is 6.07 µM, the 50% lethal concentration (LC50) is greater than 100 µM and the total growth inhibition concentration (TGI) is greater than 100 µM. Further, the inhibition of growth at 10 µM in the test on SR worked out at 61.7%.

Take `COc1ccc(OC)c(/C=C/c2nnc(Nc3ccc(Cl)cc3)o2)c1`: the inhibition of growth at 10 µM with NCI-H226 [2] was 43.9%; in the test with MDA-MB-468 it was 34%; with OVCAR-4, 116%; with NCI-H322M it was 41.4%. Moreover, the GI50 with IGROV-1 is 7700 nM; in the test with HOP-62 it was 2.71 µM; with SN12C, 4.21 µM. For the same compound, the LC50 (50% lethal concentration) with IGROV-1 was greater than 100 µM. Further, the total growth inhibition concentration (TGI) in the test with IGROV-1 is greater than 100 µM; in the test on HOP-62, 7.68 µM; in the test with SN12C it was greater than 100 µM. Also, in the test on HOP-62, the CC50 worked out at 38.9 µM. The 50% lethal concentration (LC50) with SN12C is greater than 100 µM.

On to `COc1ccc(OC)c(/C=C/C(=O)N/N=C/c2ccccc2)c1`, for which the inhibition of growth at 10 µM amounted to 52.2% in the test on CAKI-1; 34.5% in the test on SK-MEL-28; 48.7% with UACC-257; 115% with NCI-H522; 45.6% with RPMI-8226; 61.3% with A498. Besides, the inhibition of growth at 10 µM was 71.9% in the test on MDA-MB-468; 91.5% in the test on NCI/ADR-RES; 101% in the test with SK-MEL-2; 57.2% in the test on COLO 205; 36% with EKVX; 39.3% with SF-268. Besides, in the test with SK-MEL-5, the inhibition of growth at 10 µM amounted to 69.2%. Also, the GI50 stood at 1510 nM with IGROV-1, 4.95 µM with HOP-62, 30.8 µM in the test with NCI-H226 [1] and 4.17 µM with SN12C. In the test on IGROV-1, the LC50 (50% lethal concentration) is greater than 100 µM. The concentration for total growth inhibition (TGI) in the test with IGROV-1 is greater than 100 µM; in the test with HOP-62 it was greater than 100 µM; in the test on NCI-H226 [1] it was greater than 100 µM; with SN12C, 39.9 µM. Further, the CC50 in the test on HOP-62 and in the test on NCI-H226 [1] was greater than 100 µM in each case. The same compound displayed an LC50 in the test on SN12C greater than 100 µM.

The values are drawn from ChEMBL document CHEMBL3046389, “Synthesis and biological evaluation of novel hydroquinone dimethyl ethers as potential anticancer and antimicrobial agents” (2013).
